Experimental data taken from EP4467137A1, “TREATMENT OF FRONTOTEMPORAL DEMENTIA OR FRONTOTEMPORAL LOBAR DEMENTIA” (Universidad Autónoma de Madrid, priority 2023, dated 2024).

Key:
[1] = In vitro blood-brain barrier permeation assay (PAMPA-BBB); assay type: in vitro ADME; conditions: for Papp: PAMPA, permeation rate, mean ± SD, read-out: PAMPA-BBB Pe
From the text: The in vitro blood-brain barrier permeation assay (PAMPA-BBB) was used for predicting the brain penetration of compounds, following a described method [Herrera-Arozamena, Clara et al. "Resveratrol-Based MTDLs to Stimulate Defensive and Regenerative Pathways and Block Early Events in Neurodegenerative Cascades." Journal of medicinal chemistry vol. 65,6 (2022): 4727-4751. doi:10.1021/acs.jmedchem.1c01883]. The results are given as the mean ± SD. In each experiment, 11 quality control standards of known BBB permeability were included to validate the analysis set.

[2] = test system: primary rat glial cultures; test: Anti-neuroinflammatory screening in LPS-treated primary glial cultures (Griess, normalized by MTT); assay type: cell-based; conditions: % reduction of nitrites, LPS alone = 100 % inflammation, read-out: Anti-neuro inflammatory effect at 3 µM (%)
Protocol: Screening for anti-inflammatory properties in primary rat glial cultures was performed according to the protocol described previously [Gameiro, Isabel et al. "Discovery of the first dual GSK3β inhibitor/Nrf2 inducer. A new multitarget therapeutic strategy for Alzheimer's disease." Scientific reports vol. 7 45701. 31 Mar. 2017, doi:10.1038/srep45701]. All compounds were evaluated at the single concentration of 3 µM. Neuroinflammation was quantified as the value of released […], measured by the Griess method, normalized by the number of viable cells measured by the MTT method [Mosmann, T. "Rapid colorimetric assay for cellular growth and survival: application to proliferation and cytotoxicity assays." Journal of immunological methods vol. 65, 1-2 (1983): 55-63. doi:10.1016/0022-1759(83)90303-4]. LPS alone was considered 100 % inflammation.
(§1) Based on the results obtained (Table 2), Compound 1 was selected for further in vitro and in vivo studies as it was endowed with the best anti-neuroinflammatory activity. Table 2: Comparative in vitro results. Cell viability/toxicity: effect of the compound per se on cell viability of […] cells measured with the MTT method. Anti-neuroinflammatory effect: % Reduction of nitrites in primary rat glial cultures. PAMPA-BBB: In vitro blood-brain barrier permeation assay, permeation rate Pe (10-6 cm.s-1). NRF2, CD (µM): Concentration of compound that doubles de activation of NRF2. ORAC: Oxygen radical absorbance capacity. LOX-5: lipoxygenase-5.

[3] = Cell viability/toxicity by the MTT method; assay type: cell-based; conditions: human, effect of the compound per se on AREc332 cells
From the text: as §1

[4] = test system: NRF2; test: NRF2 induction, luciferase activity in AREc32 cells; assay type: cell-based; conditions: concentration that doubles the activation of NRF2, read-out: NRF2 CD
From the text: Screening of NRF2 induction was quantified by luciferase activity in AREc32 cells as described in [Herrera-Arozamena, Clara et al. "Tuning melatonin receptor subtype selectivity in oxadiazolone-based analogues: Discovery of QR2 ligands and NRF2 activators with neurogenic properties." European journal of medicinal chemistry vol. 190 (2020): 112090. doi:10.1016/j.ejmech.2020.112090].
as §1

[5] = molecular target: T1, human lipoxygenase-5 (hLOX-5) (Homo sapiens, UniProt P09917); test: Inhibition of human lipoxygenase-5; assay type: biochemical; conditions: mean ± SD of three independent experiments in triplicate; read-out: LOX5 IC50
T1 sequence (P09917 1-674): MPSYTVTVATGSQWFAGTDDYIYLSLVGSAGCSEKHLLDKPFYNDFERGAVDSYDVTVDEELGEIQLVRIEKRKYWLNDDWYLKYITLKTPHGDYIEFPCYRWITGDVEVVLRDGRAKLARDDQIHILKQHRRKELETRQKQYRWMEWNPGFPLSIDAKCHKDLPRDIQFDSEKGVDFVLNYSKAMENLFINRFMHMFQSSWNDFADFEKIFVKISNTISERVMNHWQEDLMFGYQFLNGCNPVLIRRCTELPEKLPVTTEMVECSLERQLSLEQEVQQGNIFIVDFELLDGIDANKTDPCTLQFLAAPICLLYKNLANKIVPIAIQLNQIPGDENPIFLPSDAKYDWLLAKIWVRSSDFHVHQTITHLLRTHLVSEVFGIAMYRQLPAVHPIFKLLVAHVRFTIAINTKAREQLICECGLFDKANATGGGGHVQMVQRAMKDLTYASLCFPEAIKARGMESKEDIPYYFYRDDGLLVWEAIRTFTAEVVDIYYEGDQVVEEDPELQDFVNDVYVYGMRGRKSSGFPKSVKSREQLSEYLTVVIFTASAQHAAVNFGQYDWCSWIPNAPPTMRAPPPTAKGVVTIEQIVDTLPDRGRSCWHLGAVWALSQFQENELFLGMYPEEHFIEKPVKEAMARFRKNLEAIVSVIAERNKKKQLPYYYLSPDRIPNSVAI
Protocol: The inhibition of human lipoxygenase-5 (hLOX-5) was performed as described [Herrera-Arozamena, Clara et al. "Tuning melatonin receptor subtype selectivity in oxadiazolone-based analogues: Discovery of QR2 ligands and NRF2 activators with neurogenic properties." European journal of medicinal chemistry vol. 190 (2020): 112090. doi:10.1016/j.ejmech.2020.112090], Data are the mean ± SD of three independent experiments performed in triplicate.

[6] = Oxygen Radical Absorbance Capacity Assay (ORAC); assay type: physicochemical; conditions: ORAC > 1.0 is a better ROS scavenger than trolox
Protocol: The Oxygen Radical Absorbance Capacity Assay (ORAC) was performed as described [Herrera-Arozamena, Clara et al. "Resveratrol-Based MTDLs to Stimulate Defensive and Regenerative Pathways and Block Early Events in Neurodegenerative Cascades." Journal of medicinal chemistry vol. 65,6 (2022): 4727-4751. doi:10.1021/acs.jmedchem.1c01883].

COc1cccc2c1NC(c1c[nH]c3c(OC)cccc13)C2 (stereo not shown) [Compound 6, 7-Methoxy-3-(7-methoxyindolin-2-yl)-1H-indole]
PAMPA-BBB predicted brain penetration [1]: cns+
Papp [1]: 18.5 ± 0.8 ×10⁻⁶ cm/s
inhibition at 3 µM [2]: 45 ± 8.7%
CC50 [3]: > 30 µM
EC (2-fold activation) [4]: 3.27 ± 0.25 µM
IC50 [5]: > 100 µM
ORAC (trolox equiv.) [6]: 1.0 ± 0.1 trolox equiv.

c1ccc2c(c1)CC(c1c[nH]c3ccccc13)N2 (stereo not shown) [Compound 3, 3-(Indolin-2-yl)-1H-indole]
PAMPA-BBB predicted brain penetration [1]: cns+
Papp [1]: 11.5 ± 0.8 ×10⁻⁶ cm/s
inhibition at 3 µM [2]: 24.4 ± 6.7%
CC50 [3]: > 30 µM
EC (2-fold activation) [4]: 0.0713 ± 0.031 µM
IC50 [5]: 2.89 ± 0.44 µM
ORAC (trolox equiv.) [6]: 1.9 ± 0.1 trolox equiv.

FC(F)(F)c1ccc2c(c1)CC(c1c[nH]c3ccc(C(F)(F)F)cc13)N2 (stereo not shown) [Compound 7, 5-(Trifluoromethyl)-3-(5-(trifluoromethyl)indolin-2-yl)-1H-indole]
PAMPA-BBB predicted brain penetration [1]: cns+
Papp [1]: 18.1 ± 0.9 ×10⁻⁶ cm/s
inhibition at 3 µM [2]: 45 ± 7.1%
CC50 [3]: 10 to 30 µM
EC (2-fold activation) [4]: > 30 µM
IC50 [5]: 6.63 ± 0.21 µM
ORAC (trolox equiv.) [6]: 1.3 ± 0.1 trolox equiv.

Clc1ccc2c(c1)CC(c1c[nH]c3ccc(Cl)cc13)N2 (stereo not shown) [Compound 4, 5-Chloro-3-(5-chloroindolin-2-yl)-1H-indole]
PAMPA-BBB predicted brain penetration [1]: cns+
Papp [1]: 5.2 ± 0.4 ×10⁻⁶ cm/s
inhibition at 3 µM [2]: 29.6 ± 9.4%
CC50 [3]: 10 to 30 µM
EC (2-fold activation) [4]: 2.04 ± 0.2 µM
IC50 [5]: 4.57 ± 0.25 µM
ORAC (trolox equiv.) [6]: 1.6 ± 0.2 trolox equiv.

COc1ccc2[nH]c(-c3c[nH]c4ccc(OC)cc34)cc2c1 [Compound 2, 5,5'-Dimethoxy-1H,1'H-2,3'-biindole]
PAMPA-BBB predicted brain penetration [1]: cns+
Papp [1]: 8.7 ± 0.6 ×10⁻⁶ cm/s
inhibition at 3 µM [2]: 33.2 ± 11.8%
CC50 [3]: 3 to 10 µM
EC (2-fold activation) [4]: 0.329 ± 0.017 µM
IC50 [5]: 0.42 ± 0.03 µM
ORAC (trolox equiv.) [6]: 1.5 ± 0.2 trolox equiv.

Clc1ccc2[nH]c(-c3c[nH]c4ccc(Cl)cc34)cc2c1 [Compound 5, 5,5'-Dichloro-1H,1'H-2,3'-biindole]
PAMPA-BBB predicted brain penetration [1]: cns+
Papp [1]: 10.9 ± 0.7 ×10⁻⁶ cm/s
inhibition at 3 µM [2]: 30 ± 10%
CC50 [3]: > 30 µM
EC (2-fold activation) [4]: 2.57 ± 0.68 µM
IC50 [5]: > 100 µM
ORAC (trolox equiv.) [6]: 0.5 ± 0.1 trolox equiv.

C#CCN1c2ccc(OC)cc2CC1c1cn(CC#C)c2ccc(OC)cc12 (stereo not shown) [Compound 8, 5-Methoxy-3-(5-methoxy-1-(prop-2-yn-1-yl)indolin-2-yl)-1-(prop-2-yn-1-yl)-1H-indole]
PAMPA-BBB predicted brain penetration [1]: cns+
Papp [1]: 8.3 ± 0.3 ×10⁻⁶ cm/s
inhibition at 3 µM [2]: 37 ± 11%
CC50 [3]: > 30 µM
EC (2-fold activation) [4]: 10.7 ± 1.3 µM
IC50 [5]: 0.53 ± 0.02 µM
ORAC (trolox equiv.) [6]: 1.3 ± 0.1 trolox equiv.
